# Experimental data: patent US20130267494A1, “1,4-OXAZEPANE DERIVATIVES” (priority 2010, published 2013)
# Where a name gives a salt, the structure may show the parent alone.
# Test system: SD female rats
# Experiment: Measurement of urethral resistance increasing effect (leak point pressure, intravenous administration)
# Format: in vivo, rat
# Details: for urethral resistance increasing effect (cmH2O): SD female rats
# Experimental: The urethral resistance increasing effect in rat was measured by a modified method of Matsumoto et al. (WO2009/063992) as follows. That is, SD female rats (CLEA Japan, Inc.) were anesthetized with isoflurane (1.0%; Abbott), and the spinal cord was transected at Th8-9 to avoid the voiding reflex. After laparotomy, an intravesical pressure measurement catheter and a saline infusion catheter (PE-100; Clay Adams) were inserted into the bladder. Thereafter, the abdomen of the rat was closed with aronalpha A “Sankyo” (Daiichi Sankyo). The rat with an inserted catheter was placed in a Bollman cage (KN-326 Bollman cage TYPE III; Natsume). The intravesical pressure measurement catheter was connected to a computer via a pressure transducer (REF685640; Nihon Koden), an amplifier (RPM-6008M; Nihon Koden), and a multi-channel data analyzer (MP150; Biopack), and changes in the intravesical pressure were recorded on a hard disc at a frequency of 100 samples/sec. The saline infusion catheter was connected to a 50 mL syringe (Terumo) filled with saline colored with Evans Blue (Wako). The saline was infused into the bladder from the 50 mL syringe filled with saline at a rate of 0.1 mL/sec by using an infusion pump (Kds100; KD Scientific). When the saline leaked from the urethral orifice, infusion was discontinued, and the saline in the bladder was released. The maximum pressure observed during infusion of saline into the bladder and leakage thereof was taken as an LPP (Leak point pressure) value. The measurement was repeated until the LPP value was stabilized, and an average of continuous three stable LPP values was taken as the result. […] The LPP value (Pre value) was measured, a drug was intravenously administered, and the measurement of LPP value (Post value) was again started 10 min after administration. […]
# The compound of Example 6 (0.3 mg/kg), the compound of Example 6 (1.0 mg/kg) and the vehicle were administered to the rats, and the urethral resistance increasing effect was measured by the aforementioned method.
smiles,measurement,setting,value
"CC(=O)NC[C@H]1CNCCO[C@@H]1c1ccc(Cl)c(Cl)c1 (racemic) [Example 6, N-{[(6RS,7SR)-7-(3,4-dichlorophenyl)-1,4-oxazepan-6-yl]methyl}acetamide monohydrochloride]",urethral resistance increasing effect (cmH2O),dose 0.3 mg/kg,12.8 ± 1.1 cmH2O
same,urethral resistance increasing effect (cmH2O),dose 1.0 mg/kg,19.1 ± 1.8 cmH2O
same,urethral resistance increasing effect (LPP Post value minus Pre value) compared to vehicle,"spinal cord-transected SD female rats, intravenous 0.3 and 1.0 mg/kg, LPP measured from 10 min after administration, Williams' test",dose-dependent and significant urethral resistance increasing effect
